Columns and labels:
Human FAAH = target: T1, Human FAAH (Homo sapiens, UniProt O00519); experiment: Assay Method 1: FAAH assay, hydrolysis of 3H-anandamide by cell homogenate; type: biochemical; conditions: T84 or transfected SK-N-MC cell homogenate, 3H-AEA 80 nM, rt 1 h, average of results obtained
T1 construct: expressed in transfected cells; alternatively T84 frozen cell pellets
T1 sequence (O00519 1-579): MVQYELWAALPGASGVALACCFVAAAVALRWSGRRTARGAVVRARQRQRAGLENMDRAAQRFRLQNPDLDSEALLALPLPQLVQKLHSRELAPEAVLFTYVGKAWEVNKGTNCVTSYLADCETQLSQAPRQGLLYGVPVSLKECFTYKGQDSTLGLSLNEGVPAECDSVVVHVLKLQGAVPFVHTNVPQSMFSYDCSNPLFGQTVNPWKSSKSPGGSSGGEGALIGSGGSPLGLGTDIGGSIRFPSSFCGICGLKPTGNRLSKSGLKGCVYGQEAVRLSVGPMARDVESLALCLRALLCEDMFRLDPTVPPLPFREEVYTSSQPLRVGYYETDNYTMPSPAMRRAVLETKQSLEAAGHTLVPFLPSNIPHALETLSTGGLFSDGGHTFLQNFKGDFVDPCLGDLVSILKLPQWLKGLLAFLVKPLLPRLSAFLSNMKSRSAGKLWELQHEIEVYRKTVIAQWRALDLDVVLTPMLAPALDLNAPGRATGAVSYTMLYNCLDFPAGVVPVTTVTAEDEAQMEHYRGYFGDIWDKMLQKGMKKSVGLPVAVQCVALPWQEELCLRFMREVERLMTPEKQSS
Experimental: A. Transfection of Cells with Human FAAH
(§1) A 10-cm tissue culture dish with a confluent monolayer of SK-N-MC cells was split 2 days (d) prior to transfection. Using sterile technique, the media was removed and the cells were detached from the dish by the addition of trypsin. One fifth of the cells were then placed onto a new 10-cm dish. Cells were grown in a 37° C. incubator with 5% CO2 in Minimal Essential Media Eagle with 10% Fetal Bovine Serum. After 2 d, cells were approximately 80% confluent. These cells were removed from the dish with trypsin and pelleted in a clinical centrifuge. The pellet was re-suspended in 400 μL complete media and transferred to an electroporation cuvette with a 0.4 cm gap between the electrodes. Supercoiled human FAAH cDNA (1 μg) was added to the cells and mixed. The voltage for the electroporation was set at 0.25 kV, and the capacitance was set at 960 μF. After electroporation, the cells were diluted into complete media (10 mL) and plated onto four 10-cm dishes. Because of the variability in the efficiency of electroporation, four different concentrations of cells were plated. The ratios used were 1:20, 1:10, and 1:5, with the remainder of the cells being added to the fourth dish. The cells were allowed to recover for 24 h before adding the selection media (complete media with 600 μg/mL G418). After 10 d, dishes were analyzed for surviving colonies of cells. Dishes with well-isolated colonies were used. Cells from individual colonies were isolated and tested.
(§2) T84 frozen cell pellets or transfected SK-N-MC cells (contents of 1×15 cm culture dishes) were homogenized in 50 mL of FAAH assay buffer (125 mM Tris, 1 mM EDTA, 0.2% Glycerol, 0.02% Triton X-100, 0.4 mM Hepes, pH 9). The assay mixture consisted of 50 μL of the cell homogenate, 10 μL of the test compound, and 40 μL of anandamide [1-^3H-ethanolamine] (^3H-AEA, Perkin-Elmer, 10.3 Ci/mmol), which was added last, for a final tracer concentration of 80 nM. The reaction mixture was incubated at rt for 1 h. During the incubation, 96-well Multiscreen filter plates (catalog number MAFCNOB50; Millipore, Bedford, Mass., USA) were loaded with 25 μL of activated charcoal (Multiscreen column loader, catalog number MACL09625, Millipore) and washed once with 100 μL of MeOH. Also during the incubation, 96-well DYNEX MicroLite plates (catalog number NL510410) were loaded with 100 μL of MicroScint40 (catalog number 6013641, Packard Bioscience, Meriden, Conn., USA). After the 1 h incubation, 60 μL of the reaction mixture were transferred to the charcoal plates, which were then assembled on top of the DYNEX plates using
Centrifuge Alignment Frames (catalog number MACF09604, Millipore). The unbound labeled ethanolamine was centrifuged through to the bottom plate (5 min at 2000 rpm), which was preloaded with the scintillant, as described above. The plates were sealed and left at rt for 1 h before counting on a Hewlett Packard TopCount.
(§3) Results for compounds tested in these assays are summarized in Table 1, as an average of results obtained. Compounds were tested in free base, hydrochloride salt, and/or trifluoroacetic acid salt forms. Where activity is shown as greater than (>) a particular value, the value is the solubility limit of the compound in the assay medium or the highest concentration tested in the assay.

Rat FAAH = target: T2, Rat FAAH (Rattus norvegicus, UniProt P97612); experiment: Assay Method 2: FAAH assay, hydrolysis of 3H-anandamide by cell homogenate; type: biochemical; conditions: T84 or transfected SK-N-MC cell homogenate, 3H-AEA 80 nM, rt 1 h, average of results obtained
T2 construct: expressed in transfected cells
T2 sequence (P97612 1-579): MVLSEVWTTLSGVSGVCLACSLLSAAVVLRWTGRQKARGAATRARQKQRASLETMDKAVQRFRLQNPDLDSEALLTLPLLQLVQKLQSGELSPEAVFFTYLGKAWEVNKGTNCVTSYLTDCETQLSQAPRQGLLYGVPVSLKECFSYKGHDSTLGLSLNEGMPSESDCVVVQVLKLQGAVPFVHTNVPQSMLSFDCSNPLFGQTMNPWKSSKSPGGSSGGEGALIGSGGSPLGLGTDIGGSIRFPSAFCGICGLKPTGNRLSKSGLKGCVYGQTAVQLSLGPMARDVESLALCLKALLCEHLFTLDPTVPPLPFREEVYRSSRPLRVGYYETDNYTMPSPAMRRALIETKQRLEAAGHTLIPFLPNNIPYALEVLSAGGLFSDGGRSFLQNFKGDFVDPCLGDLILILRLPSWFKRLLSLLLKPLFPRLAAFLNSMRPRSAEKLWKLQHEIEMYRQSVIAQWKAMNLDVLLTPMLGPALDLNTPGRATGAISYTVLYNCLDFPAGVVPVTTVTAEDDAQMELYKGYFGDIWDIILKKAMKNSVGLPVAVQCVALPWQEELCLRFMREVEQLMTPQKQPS
Experimental: A. Transfection of Cells with Rat FAAH
as §1, with “rat” for “human”, “[…]” for “960 μF.”
as §2, with “25” for “25 μL”, “using Centrifuge Alignment Frames (catalog number MACF09604, Millipore). The unbound labeled ethanolamine was centrifuged through to the bottom plate (5 min at 2000 rpm), which was preloaded with the scintillant, as described above. The plates were sealed and left at rt for 1 h before counting on a Hewlett Packard TopCount.” for “using”
as §3

SMILES | IC50 (Human FAAH) [nM] | IC50 (Rat FAAH) [nM]
O=C(Nc1cccnc1)N1CCCC(Cc2cccc(Oc3ccc(F)cc3)c2)C1 (centres unmarked) [Example 10, 3-[3-(4-Fluorophenoxy)benzyl]-N-pyridin-3-ylpiperidine-1-carboxamide] | 18 | 19
O=C(Nc1ccncn1)N1CCCC(Cc2ccc(C(F)(F)F)cc2)C1 (centres unmarked) [Example 2, N-Pyrimidin-4-yl-3-{[4-(trifluoromethyl)phenyl]methyl}piperidine-1-carboxamide] | 8000 | > 10000
O=C(Nc1ccncn1)N1CCCC(Cc2cccc(C(F)(F)F)c2)C1 (centres unmarked) [Example 3, N-Pyrimidin-4-yl-3-{[3-(trifluoromethyl)phenyl]methyl}piperidine-1-carboxamide] | 8000 | 10000
O=C(Nc1cccnc1)N1CCCC(Cc2cccc(Oc3ccc(OC(F)(F)F)cc3)c2)C1 (centres unmarked) [Example 15, 3-[3-(4-Trifluoromethoxy-phenoxy)-benzyl]-piperidine-1-carboxylic acid pyridine-3-ylamide] | 11 | 17
O=C(Nc1ccon1)N1CCCC(Cc2ccc(C(F)(F)F)cc2)C1 (centres unmarked) [Example 8, N-Isoxazol-3-yl-3-{[4-(trifluoromethyl)phenyl]methyl}piperidine-1-carboxamide] | 10000 | > 10000
O=C(Nc1ccon1)N1CCCC(Cc2cccc(C(F)(F)F)c2)C1 (centres unmarked) [Example 9, N-Isoxazol-3-yl-3-{[3-(trifluoromethyl)phenyl]methyl}piperidine-1-carboxamide] | 7000 | 9000
O=C(Nc1cnc2cccnn12)N1CCCC(Cc2cccc(Oc3ccc(F)cc3)c2)C1 (centres unmarked) [Example 12, 3-[3-(4-Fluoro-phenoxy)-benzyl]-piperidine-1-carboxylic acid imidazo[1,2-b]pyridazin-3-ylamide] | 56 | 7
O=C(Nc1cccnc1)N1CCCC(Cc2ccc(OC(F)(F)F)cc2)C1 (centres unmarked) [Example 19, 3-(4-Trifluoromethoxy-benzyl)-piperidine-1-carboxylic acid pyridin-3-ylamide] | 430 | 1600
O=C(Nc1cccnc1)N1CCCC(Cc2cccc(OC(F)(F)F)c2)C1 (centres unmarked) [Example 18, 3-(3-Trifluoromethoxy-benzyl)-piperidine-1-carboxylic acid pyridin-3-ylamide] | 190 | 450
O=C(Nc1noc2ccccc12)N1CCCC(Cc2cccc(C(F)(F)F)c2)C1 (centres unmarked) [Example 6, N-1,2-Benzisoxazol-3-yl-3-{[3-(trifluoromethyl)-phenyl]-methyl}-piperidine-1-carboxamide] | 645 | 50
O=C(Nc1cccnc1)N1CCCC(Cc2ccc(Cl)c(Cl)c2)C1 (centres unmarked) [Example 17, 3-(3,4-Dichloro-benzyl)-piperidine-1-carboxylic acid pyridin-3-ylamide] | 48 | 180
O=C(Nc1cccnc1)N1CCCC(Cc2ccc3c(c2)OC(F)(F)O3)C1 (centres unmarked) [Example 1, 3-(2,2-Difluoro-benzo[1,3]dioxol-5-ylmethyl)-piperidine-1-carboxylic acid pyridin-3-ylamide] | 410 | 604
O=C(Nc1ccncn1)N1CCCC(Cc2ccc(F)cc2)C1 (centres unmarked) [Example 4, 3-[4(4-Fluorophenyl)methyl]-N-pyrimidin-4-ylpiperidine-1-carboxamide] | 10000 | > 10000
O=C(Nc1cnccc1Cl)N1CCCC(Cc2cccc(Oc3ccc(F)cc3)c2)C1 (centres unmarked) [Example 11, 3-[3-(4-Fluoro-phenoxy)-benzyl]-piperidine-1-carboxylic acid (4-chloro-pyridin-3-yl)-amide] | 87 | 8
O=C(Nc1noc2ccccc12)N1CCCC(Cc2ccc(C(F)(F)F)cc2)C1 (centres unmarked) [Example 5, N-1,2-Benzisoxazol-3-yl-3-{[4-(trifluoromethyl)-phenyl]-methyl}-piperidine-1-carboxamide] | 2000 | 183
O=C(Nc1cccnc1)N1CCCC(Cc2cccc(Oc3ccc(Cl)cc3)c2)C1 (single isomer, unassigned; (-)) [Example 14, (−)-3-[3-(4-Chloro-phenoxy)-benzyl]-piperidine-1-carboxylic acid pyridin-3-ylamide] | 73 | 27

Reference: US8598356B2, “Heteroaryl-substituted urea modulators of fatty acid amide hydrolase” (Janssen Pharmaceutica NV, priority 2008, dated 2013)
